Earlier results in paper PMC2866172 (Journal of medicinal chemistry, 2010).

System: MTB enoyl-ACP reductase InhA
Conditions: on MTB enoyl-ACP reductase InhA; cited from earlier work

## NC(=O)C1=CN([C@@H]2O[C@H](COP(=O)(O)OP(=O)(O)OC[C@H]3O[C@@H](n4cnc5c(N)ncnc54)[C@H](O)[C@@H]3O)[C@@H](O)[C@H]2O)C=C[C@@H]1C(=O)c1ccncc1 [INH-NAD adduct]
  Residence time: 60 min
